Results from patent publication US12570615B2, “Quinazolinone derivatives” (Hoffmann-La Roche Inc., priority 2021, dated 2026).

What was measured:
[1] = biological target: BRAF (wt) (Homo sapiens, UniProt P15056); assay: KD BRAF (wt) (Table 1); format: binding
[2] = biological target: BRAF (V600E) (Homo sapiens, UniProt P15056, V600E); assay: KD BRAF (V600E) (Table 1); format: binding
[3] = test system: P-ERK (ERK phospho-T202/Y204) in A375 cells expressing V600E mutated BRAF; assay: HTRF assay for P-ERK determination in A375 cells (BRAF inhibition); format: cell-based; conditions: Homo sapiens, A-375, P-ERK level, drug incubation 1 hour, DMSO = 100%, 10 μM Dabrafenib = 0%
Excerpt: (§1) A375 is a cellular cancer model expressing V600E mutated BRAF and HCT116 a cellular cancer model expressing WT BRAF. First generation BRAF inhibitors such as e.g. dabrafenib induce a paradox effect on tumour cells in that they inhibit the growth of V600E mutated BRAF cells (such as e.g. A375), while they activate growth in WT BRAF cells (such as e.g. HCT 116). ERK 1,2 phosphorylation (terminal member of the phosphorylation cascade of the MAPK pathway) is hereafter reported as main readout for the activation status of the MAPK pathway. DMEM no-phenol red medium supplemented with L-glutamine was purchased from (Thermo Fisher Scientific). Fetal bovine serum (FBS) was purchased from VWR. Advanced ERK phospho-T202/Y204 kit—10,000 tests was purchased from Cisbio cat #64AERPEH. A375 (catalog #CRL-1619) and HCT116 (catalog #CCL-247) cells were originally obtained from American type Culture Collection (ATCC) and banked by the Roche repository. 384-Well microplates utilized were purchased from Greiner Bio-One, 384-well, (With Lid, HiBase, Low volume cat 784-080).
(§2) Prior to the assay, A375 and HCT116 cell lines are maintained in DMEM no-phenol red medium supplemented with 10% fetal bovine serum (FBS). Following compound treatment, P-ERK levels are determined by measuring FRET fluorescence signal induced by selective binding of 2 antibodies provided in the mentioned kit (Cisbio cat #64AERPEH) on ERK protein when phosphorylated at Thr202/Tyr204. Briefly, 8000 cells/well in 12 μl media/well are plated in the 384-well plate and left overnight in the incubator (at 37° C. with 5% CO2-humidified atmosphere), the following day the plate is treated in duplicate with test compounds, dabrafenib and PLX8394 (the latter two as controls) at the following final drug concentrations: 10 μM-3 μM 1 μM-0.3 μM-0.1 μM-0.03 μM-0, 01 μM-0.003 μM-0.001 μM, all wells are subjected to DMSO normalization and drug incubation occurs for 1 hour. Then, […] of a 4× lysis buffer supplied with the kit are added to the wells, the plate is then centrifuged for 30 second (3000 rpm) and incubated on a plate shaker for 1 h at rt.
(§3) At the end of the incubation 4 μL/well of advanced P-ERK antibody solution (prepared according to manufacturer's instruction) followed by 4 μL/well of criptate P-ERK antibody solution (prepared according to manufacturer's instruction) (Cisbio cat #64AERPEH) are added to test wells.
(§4) In order to allow proper data normalization control wells non drug treated reported in the following table are always included in each plate (according to manufacturer's instruction):
(§5) The plate is then centrifuged at 3000 rpm for 30 second, sealed to prevent evaporation and incubated overnight in the dark at room temperature.
(§6) The plate is then analyzed and fluorescence emission value collected through a Pherastast FSX (BMG Labtech) apparatus at […].
(§7) The obtained fluorescence values are processed according to the formula Ratio=[…]*10000 then the average of the ratio on the blank is subtracted to all values.
Data are normalized in the case of A375 cells (BRAF inhibition) considering the average of the ratio (blank subtracted) derived by DMSO only treated cells as 100% and by considering the average of the ratio (blank subtracted) derived by 10 μM Dabrafenib treated cells as 0%. Mean of the normalized points are fitted with sigmoidal curve and IC50 determined.

[4] = test system: P-ERK (ERK phospho-T202/Y204) in HCT116 cells expressing WT BRAF; assay: HTRF assay for P-ERK determination in HCT116 cells (BRAF activation); format: cell-based; conditions: Homo sapiens, HCT-116, drug incubation 1 hour, concentration giving 50% of the maximum activation achieved by Dabrafenib
Excerpt: as §1, §2, §3, §4, §5, §6, §7
Data are normalized in the case of HCT116 cells (BRAF activation) considering the average of the ratio (blank subtracted) derived by DMSO only treated cells as 0% and by considering the average of the ratio (blank subtracted) derived by Dabrafenib treated cells at the concentration which provides the highest signal as 100%. Individual points are fitted with either sigmoidal or bell shape curves. The EC50 is the concentration at which activation equal to 50% of the maximum activation achieved by Dabrafenib is obtained.

Sequence of BRAF (wt) (P15056 whole entry): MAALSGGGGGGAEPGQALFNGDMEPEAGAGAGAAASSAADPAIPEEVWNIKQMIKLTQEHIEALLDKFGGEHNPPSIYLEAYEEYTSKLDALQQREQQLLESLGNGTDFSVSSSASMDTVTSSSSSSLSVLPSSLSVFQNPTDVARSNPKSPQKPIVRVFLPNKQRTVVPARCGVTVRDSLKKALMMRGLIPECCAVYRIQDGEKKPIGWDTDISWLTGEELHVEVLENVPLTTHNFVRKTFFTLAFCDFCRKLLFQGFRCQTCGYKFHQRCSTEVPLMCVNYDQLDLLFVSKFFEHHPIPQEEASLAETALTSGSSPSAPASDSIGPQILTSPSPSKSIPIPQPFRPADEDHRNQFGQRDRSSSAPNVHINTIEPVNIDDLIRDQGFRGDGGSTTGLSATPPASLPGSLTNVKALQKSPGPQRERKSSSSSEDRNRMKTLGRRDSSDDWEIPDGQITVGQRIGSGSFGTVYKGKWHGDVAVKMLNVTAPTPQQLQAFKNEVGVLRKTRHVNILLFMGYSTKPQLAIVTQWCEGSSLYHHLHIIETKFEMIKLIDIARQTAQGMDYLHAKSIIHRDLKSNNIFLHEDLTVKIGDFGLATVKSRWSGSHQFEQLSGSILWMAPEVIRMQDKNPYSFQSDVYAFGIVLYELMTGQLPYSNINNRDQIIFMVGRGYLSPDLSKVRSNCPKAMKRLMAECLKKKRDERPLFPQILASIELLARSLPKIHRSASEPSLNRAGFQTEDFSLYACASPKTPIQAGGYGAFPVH
Sequence of BRAF (V600E) (P15056 whole entry V600E): as the sequence (P15056 whole entry) above, with V600E counted along it

| SMILES | Kd [1] [nM] | Kd [2] [nM] | IC50 [3] [nM] | EC50 [4] [nM] |
| --- | --- | --- | --- | --- |
| CC(C)(C)OC(=O)N1CCC(CCn2cnc3ccc(Oc4c(F)ccc(NS(=O)(=O)N5CCCCC5)c4C#N)cc3c2=O)CC1 [Example 18, tert-butyl 4-[2-[6-[2-cyano-6-fluoro-3-(1-piperidylsulfonylamino)phenoxy]-4-oxo-quinazolin-3-yl]ethyl]piperidine-1-carboxylate] | 45.4 | 57.5 | 158 | 1460 |
| CC(C)(C)OC(=O)N1CCC(CCn2cnc3ccc(Oc4c(F)ccc(NS(=O)(=O)C5CCC5)c4C#N)cc3c2=O)CC1 [Example 21, tert-butyl 4-[2-[6-[2-cyano-3-(cyclobutylsulfonylamino)-6-fluoro-phenoxy]-4-oxo-quinazolin-3-yl]ethyl]piperidine-1-carboxylate] | 11.7 | 67.2 | 86.8 | ≥ 10000 |
| CC(C)(C)OC(=O)N1CCCC(CCn2cnc3ccc(Oc4c(F)ccc(NS(=O)(=O)C5CCCC5)c4C#N)cc3c2=O)C1 (centres unmarked) [Example 22, tert-butyl 3-[2-[6-[2-cyano-3-(cyclopentylsulfonylamino)-6-fluoro-phenoxy]-4-oxo-quinazolin-3-yl]ethyl]piperidine-1-carboxylate] | 27.9 | 28.9 | 155 | ≥ 10000 |
| CC(C)(C)OC(=O)N1CCN(CCn2cnc3ccc(Oc4c(F)ccc(NS(=O)(=O)C5CCCC5)c4C#N)cc3c2=O)CC1 [Example 25, tert-butyl 4-[2-[6-[2-cyano-3-(cyclopentylsulfonylamino)-6-fluoro-phenoxy]-4-oxo-quinazolin-3-yl]ethyl]piperazine-1-carboxylate] | 4.14 | 7.06 | 7.63 | 802 |
| CCN(C)S(=O)(=O)Nc1ccc(F)c(Oc2ccc3ncn(CCN4CCN(C(=O)OC(C)(C)C)CC4)c(=O)c3c2)c1C#N [Example 27, tert-butyl 4-[2-[6-[2-cyano-3-[[ethyl(methyl)sulfamoyl]amino]-6-fluoro-phenoxy]-4-oxo-quinazolin-3-yl]ethyl]piperazine-1-carboxylate] | 16.3 | 28.4 | 6.99 | 6860 |
| CN(Cc1ccc(CCCn2cnc3ccc(Oc4c(F)ccc(NS(=O)(=O)C5CCCC5)c4C#N)cc3c2=O)cc1)C(=O)OC(C)(C)C [Example 28, tert-butyl N-[[4-[3-[6-[2-cyano-3-(cyclopentylsulfonylamino)-6-fluoro-phenoxy]-4-oxo-quinazolin-3-yl]propyl]phenyl]methyl]-N-methyl-carbamate] | 19.6 | 33.7 | 144 | 836 |
| CCC(C)S(=O)(=O)Nc1ccc(F)c(Oc2ccc3ncn(CCN4CCN(C(=O)OC(C)(C)C)CC4)c(=O)c3c2)c1C#N (centres unmarked) [Example 29, tert-butyl 4-[2-[6-[2-cyano-6-fluoro-3-(sec-butylsulfonylamino)phenoxy]-4-oxo-quinazolin-3-yl]ethyl]piperazine-1-carboxylate] | 7.43 | 19.2 | 18.1 | 3670 |
| CCN(C)S(=O)(=O)Nc1cccc(Nc2ccc3ncn(CC(=O)NCCOC)c(=O)c3c2)c1C#N [Example 31, 2-[6-[2-cyano-3-[[ethyl(methyl)sulfamoyl]amino]anilino]-4-oxo-quinazolin-3-yl]-N-(2-methoxyethyl)acetamide] | 137 | 403 | ≥ 10000 | ≥ 10000 |
| CCN(C)S(=O)(=O)Nc1cccc(Nc2ccc3ncn(CC4CCN(C(=O)OC(C)(C)C)CC4)c(=O)c3c2)c1C#N [Example 32, tert-butyl 4-[[6-[2-cyano-3-[[ethyl(methyl)sulfamoyl]amino]anilino]-4-oxo-quinazolin-3-yl]methyl]piperidine-1-carboxylate] | 210 | 813 | 428 | ≥ 10000 |
| CCN(C)S(=O)(=O)Nc1cccc(Nc2ccc3ncn(CC4CCN(C(C)=O)CC4)c(=O)c3c2)c1C#N [Example 33, 3-[(1-acetyl-4-piperidyl)methyl]-6-[2-cyano-3-[[ethyl(methyl)sulfamoyl]amino]anilino]-4-oxo-quinazoline] | 45.6 | 92.9 | 576 | ≥ 10000 |
| CCN(C)S(=O)(=O)Nc1cccc(Nc2ccc3ncn(CCOCCOCCNC(=O)OC(C)(C)C)c(=O)c3c2)c1C#N [Example 34, tert-butyl N-[2-[2-[2-[6-[2-cyano-3-[[ethyl(methyl)sulfamoyl]amino]anilino]-4-oxo-quinazolin-3-yl]ethoxy]ethoxy]ethyl]carbamate] | 91.9 | 247 | 287 | ≥ 10000 |

The remaining lines, values ahead:

| Kd [1] [nM] | Kd [2] [nM] | IC50 [3] [nM] | EC50 [4] [nM] | SMILES |
| --- | --- | --- | --- | --- |
| 0.93 | 2.31 | 103 | ≥ 10000 | CN(CCCn1cnc2ccc(Oc3c(F)ccc(NS(=O)(=O)N4CCCC4)c3C#N)cc2c1=O)C(=O)OC(C)(C)C [Example 19, tert-butyl N-[3-[6-[2-cyano-6-fluoro-3-(pyrrolidin-1-ylsulfonylamino)phenoxy]-4-oxo-quinazolin-3-yl]propyl]-N-methyl-carbamate] |
| 3.34 | 9.2 | 436 | ≥ 10000 | CN(CCCn1cnc2ccc(Oc3c(F)ccc(NS(=O)(=O)C4CCCC4)c3C#N)cc2c1=O)C(=O)OC(C)(C)C [Example 20, tert-butyl N-[3-[6-[2-cyano-3-(cyclopentylsulfonylamino)-6-fluoro-phenoxy]-4-oxo-quinazolin-3-yl]propyl]-N-methyl-carbamate] |
| 9.23 | 10.2 | 49.7 | 2300 | CC(C)(C)OC(=O)N1CCCC(CCn2cnc3ccc(Oc4c(F)ccc(NS(=O)(=O)N5CCCC5)c4C#N)cc3c2=O)C1 (centres unmarked) [Example 23, tert-butyl 3-[2-[6-[2-cyano-6-fluoro-3-(pyrrolidin-1-ylsulfonylamino)phenoxy]-4-oxo-quinazolin-3-yl]ethyl]piperidine-1-carboxylate] |
| 0.42 | 0.76 | 50.4 | ≥ 10000 | CC(=O)N(C)CCCn1cnc2ccc(Oc3c(F)ccc(NS(=O)(=O)C4CCCC4)c3C#N)cc2c1=O [Example 24, N-[3-[6-[2-cyano-3-(cyclopentylsulfonylamino)-6-fluoro-phenoxy]-4-oxo-quinazolin-3-yl]propyl]-N-methyl-acetamide] |
| 0.32 | 0.55 | 20.5 | 4260 | CC(=O)N(C)CCCn1cnc2ccc(Oc3c(F)ccc(NS(=O)(=O)N4CCCC4)c3C#N)cc2c1=O [Example 26, N-[3-[6-[2-cyano-6-fluoro-3-(pyrrolidin-1-ylsulfonylamino)phenoxy]-4-oxo-quinazolin-3-yl]propyl]-N-methyl-acetamide] |
| 6.15 | 12.1 | 52.4 | 455 | CN(Cc1ccc(CCCn2cnc3ccc(Oc4c(F)ccc(NS(=O)(=O)N5CCCC5)c4C#N)cc3c2=O)cc1)C(=O)OC(C)(C)C [Example 30, tert-butyl N-[[4-[3-[6-[2-cyano-6-fluoro-3-(pyrrolidin-1-ylsulfonylamino)phenoxy]-4-oxo-quinazolin-3-yl]propyl]phenyl]methyl]-N-methyl-carbamate] |
